Key:
MelBSt [1] = biological target: MelBSt (Salmonella enterica, UniProt P30878, R295C); settings: RSO vesicles solubilized with MNG-3, 10 μM D^2G, 20 mM NaCl
MelBEc [2] = biological target: T1, MelBEc (Escherichia coli, UniProt P02921); assay: Trp→D^2G FRET, displacement of bound D^2G; assay type: binding; settings: read-out: RSO membrane vesicles, 10 μM D^2G, 20 mM NaCl, KPi pH 7.5
MelBSt [3] = biological target: T2, MelBSt (Salmonella enterica, UniProt P30878); assay: Trp→D^2G FRET, displacement of bound D^2G; assay type: binding; settings: read-out: RSO membrane vesicles, 10 μM D^2G, 20 mM NaCl, KPi pH 7.5
MelBEc [4] = biological target: T1, MelBEc; assay: isothermal titration calorimetry; assay type: binding; settings: purified in 0.01% MNG-3, 20 mM Tris-HCl pH 7.5, 100 mM NaCl, 10% glycerol, 25 °C
MelBSt [5] = biological target: T2, MelBSt; assay: isothermal titration calorimetry; assay type: binding; settings: purified in 0.01% MNG-3, 20 mM Tris-HCl pH 7.5, 100 mM NaCl, 10% glycerol, 25 °C
[6] = biological target: WT melibiose permease of Escherichia coli (MelBEc) (Escherichia coli, UniProt P02921 1-473); assay: ITC
[7] = biological target: R141C mutant of the melibiose permease of Salmonella typhimurium (R141C MelBSt) (Salmonella typhimurium, UniProt P30878 1-476, R141C); assay: ITC

T1 sequence (P02921 2-473): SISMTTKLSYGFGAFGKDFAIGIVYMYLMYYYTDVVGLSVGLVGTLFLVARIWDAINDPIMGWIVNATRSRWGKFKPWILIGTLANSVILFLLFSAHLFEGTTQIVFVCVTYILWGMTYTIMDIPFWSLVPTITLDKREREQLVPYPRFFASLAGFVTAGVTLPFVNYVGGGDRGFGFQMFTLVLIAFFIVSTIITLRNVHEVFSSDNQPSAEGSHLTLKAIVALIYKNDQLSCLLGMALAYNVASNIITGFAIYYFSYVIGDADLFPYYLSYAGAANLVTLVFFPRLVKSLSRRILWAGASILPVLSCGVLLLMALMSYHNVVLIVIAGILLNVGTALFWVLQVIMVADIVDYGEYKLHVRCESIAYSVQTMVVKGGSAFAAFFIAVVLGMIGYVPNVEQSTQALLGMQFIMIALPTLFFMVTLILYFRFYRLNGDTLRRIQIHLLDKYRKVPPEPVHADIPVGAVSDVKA

Molecule	IC50 (MelBSt [1]) [µM]	IC50 (MelBEc [2]) [µM]	IC50 (MelBSt [3]) [µM]	Kd (MelBEc [4]) [µM]	Kd (MelBSt [5]) [µM]	binding result [6]	Kd [7] [µM]
OC[C@H]1O[C@H](OC[C@H]2OC(O)[C@H](O)[C@@H](O)[C@@H]2O)[C@H](O)[C@@H](O)[C@H]1O (stereo partly shown) [melibiose]	5490 ± 830	660 ± 160	2420 ± 220	1280 ± 60	2510 ± 130		
phosphotransferase protein IIA^Glc of E. coli (natural protein, UniProt P69783 1-169, looked up) MGLFDKLKSLVSDDKKDTGTIEIIAPLSGEIVNIEDVPDVVFAEKIVGDGIAIKPTGNKMVAPVDGTIGKIFETNHAFSIESDSGVELFVHFGIDTVELKGEGFKRIAEEGQRVKVGDTVIEFDLPLLEEKAKSTLTPVVISNMDEIKELIKLSGSVTVGETPVIRIKK						binds	2

From publication PMC4646067 (Biochemistry, 2015)
